# In patent publication US9163008B2, “Pyrimidines as sodium channel blockers” (Purdue Pharma, L.P., priority 2011, dated 2015):
# pIC50: −log10 of the molar value.
# Target: human Nav1.7 (Homo sapiens (Human), UniProt Q15858)
# Experiment: FLIPR sodium dye assay (CoroNa Green) with KCl and test article pre-incubation
# Format: cell-based
# Settings: not given
# Chain of human Nav1.7 (Q15858 other isoform, or with tags, fused parts or gaps): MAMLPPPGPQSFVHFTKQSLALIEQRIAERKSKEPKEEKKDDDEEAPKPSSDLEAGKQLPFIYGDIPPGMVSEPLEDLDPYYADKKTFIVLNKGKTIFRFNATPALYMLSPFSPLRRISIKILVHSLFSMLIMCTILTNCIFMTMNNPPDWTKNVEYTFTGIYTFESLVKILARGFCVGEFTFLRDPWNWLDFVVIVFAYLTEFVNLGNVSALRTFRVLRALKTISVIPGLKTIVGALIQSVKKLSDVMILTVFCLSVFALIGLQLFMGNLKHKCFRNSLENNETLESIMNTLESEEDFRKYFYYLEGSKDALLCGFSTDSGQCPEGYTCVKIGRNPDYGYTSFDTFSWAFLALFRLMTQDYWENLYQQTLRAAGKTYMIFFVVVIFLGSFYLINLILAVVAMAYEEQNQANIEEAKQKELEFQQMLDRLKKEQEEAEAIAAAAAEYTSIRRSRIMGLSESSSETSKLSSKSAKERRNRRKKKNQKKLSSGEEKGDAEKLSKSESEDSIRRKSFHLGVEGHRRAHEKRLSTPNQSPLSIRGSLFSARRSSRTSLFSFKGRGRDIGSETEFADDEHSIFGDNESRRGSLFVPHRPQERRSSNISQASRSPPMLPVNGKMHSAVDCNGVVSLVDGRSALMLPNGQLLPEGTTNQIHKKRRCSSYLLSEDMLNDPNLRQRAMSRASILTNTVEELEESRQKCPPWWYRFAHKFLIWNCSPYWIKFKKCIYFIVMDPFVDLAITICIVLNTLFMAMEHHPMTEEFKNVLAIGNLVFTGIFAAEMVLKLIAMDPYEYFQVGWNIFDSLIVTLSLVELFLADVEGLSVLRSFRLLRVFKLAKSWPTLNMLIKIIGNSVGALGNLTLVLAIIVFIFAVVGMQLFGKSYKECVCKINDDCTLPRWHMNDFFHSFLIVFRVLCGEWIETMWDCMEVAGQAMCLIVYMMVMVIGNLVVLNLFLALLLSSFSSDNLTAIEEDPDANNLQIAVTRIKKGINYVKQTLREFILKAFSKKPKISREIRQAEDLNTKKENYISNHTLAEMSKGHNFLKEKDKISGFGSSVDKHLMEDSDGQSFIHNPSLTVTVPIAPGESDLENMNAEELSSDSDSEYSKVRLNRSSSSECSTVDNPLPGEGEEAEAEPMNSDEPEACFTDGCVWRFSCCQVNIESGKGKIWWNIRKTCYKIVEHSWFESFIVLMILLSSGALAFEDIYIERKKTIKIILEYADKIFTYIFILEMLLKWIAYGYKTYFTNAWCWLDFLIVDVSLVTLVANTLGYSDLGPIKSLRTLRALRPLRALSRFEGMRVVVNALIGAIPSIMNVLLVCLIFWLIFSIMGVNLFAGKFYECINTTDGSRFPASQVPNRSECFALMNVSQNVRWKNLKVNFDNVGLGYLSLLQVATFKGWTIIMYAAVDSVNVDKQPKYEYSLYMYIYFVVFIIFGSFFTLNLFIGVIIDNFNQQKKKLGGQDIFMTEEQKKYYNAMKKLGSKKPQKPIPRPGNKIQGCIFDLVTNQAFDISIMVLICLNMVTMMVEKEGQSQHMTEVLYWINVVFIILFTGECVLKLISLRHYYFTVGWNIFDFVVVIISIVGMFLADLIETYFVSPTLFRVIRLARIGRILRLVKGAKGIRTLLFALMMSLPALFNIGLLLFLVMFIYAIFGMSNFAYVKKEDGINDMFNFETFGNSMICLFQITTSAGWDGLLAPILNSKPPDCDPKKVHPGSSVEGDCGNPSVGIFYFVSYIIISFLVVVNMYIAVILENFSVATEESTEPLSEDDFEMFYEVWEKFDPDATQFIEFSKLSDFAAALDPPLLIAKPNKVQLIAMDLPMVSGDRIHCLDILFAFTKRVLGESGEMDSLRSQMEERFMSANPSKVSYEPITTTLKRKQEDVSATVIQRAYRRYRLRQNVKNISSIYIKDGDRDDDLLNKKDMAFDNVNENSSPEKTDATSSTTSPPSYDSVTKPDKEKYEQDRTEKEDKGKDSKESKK
row,SMILES,pIC50
1,"NC(=O)c1cc(N2CCCC(C(N)=O)C2)nc(-c2ccc(Oc3ccc(F)cc3)cc2)n1 (stereo not drawn) [Cpd No. 24, 6-(3-carbamoylpiperidin-1-yl)-2-(4-(4-fluorophenoxy)phenyl)pyrimidine-4-carboxamide]",4.70 to 5.00

# Same assay, conditions: read-out: Nav1.7 Activity FLIPR assay IC50
row,SMILES,pIC50
1,"NC(=O)c1cc(NC2(C(N)=O)CC2)nc(-c2ccc(Oc3ccc(F)cc3)cc2)n1 [Cpd No. 8, 6-((1-carbamoylcyclopropyl)amino)-2-(4-(4-fluorophenoxy)phenyl)pyrimidine-4-carboxamide]",6.38
2,"CCOC(=O)[C@@H]1Cc2ccccc2N1c1cc(C(N)=O)nc(-c2ccc(Oc3ccc(F)cc3)cc2)n1 [Cpd No. 16, (S)-ethyl 1-(6-carbamoyl-2-(4-(4-fluorophenoxy)phenyl)pyrimidin-4-yl) indoline-2-carboxylate]",< 4.70
3,"C[C@@H](C(N)=O)N(C)c1cc(C(N)=O)nc(-c2ccc(Oc3ccc(F)cc3)cc2)n1 [Cpd No. 20, (S)-6-((1-amino-1-oxopropan-2-yl)(methyl)amino)-2-(4-(4-fluorophenoxy)phenyl)pyrimidine-4-carboxamide]",6.66
4,"CC(Nc1cc(C(N)=O)nc(-c2ccc(Oc3ccc(F)cc3)cc2)n1)C(N)=O (stereo not drawn) [Cpd No. 22, 6-((1-amino-1-oxopropan-2-yl)amino)-2-(4-(4-fluorophenoxy)phenyl)pyrimidine-4-carboxamide]",6.26
5,"CC(CC(N)=O)Nc1cc(C(N)=O)nc(-c2ccc(Oc3ccc(F)cc3)cc2)n1 (stereo not drawn) [Cpd No. 23, 6-((4-amino-4-oxobutan-2-yl)amino)-2-(4-(4-fluorophenoxy)phenyl)pyrimidine-4-carboxamide]",6.52
6,"COC(=O)[C@H](C)Nc1cc(C(=O)O)nc(-c2ccc(Oc3ccc(F)cc3)cc2)n1 [Cpd No. 33, (S)-2-(4-(4-fluorophenoxy)phenyl)-6-((1-methoxy-1-oxopropan-2-yl)amino)pyrimidine-4-carboxylic acid]",6.01
7,"NC(=O)c1cc(N2CCNCC2CO)nc(-c2ccc(Oc3ccc(F)cc3)cc2)n1 (stereo not drawn) [Cpd No. 48, 2-(4-(4-fluorophenoxy)phenyl)-6-(2-(hydroxymethyl)piperazin-1-yl)pyrimidine-4-carboxamide]",6.77

# Same assay, conditions: recombinant human Nav1.7 in HEK293; veratridine and scorpion venom agonists; read-out: Nav1.7 Activity FLIPR assay IC50
row,SMILES,pIC50
1,"NC(=O)CCNc1cc(C(N)=O)nc(-c2ccc(Oc3ccc(F)cc3)cc2)n1 [Cpd No. 19, 6-((3-amino-3-oxopropyl)amino)-2-(4-(4-fluorophenoxy)phenyl)pyrimidine-4-carboxamide]",< 4.70
2,"C[C@H](Nc1cc(C(N)=O)nc(-c2ccc(Oc3ccc(F)cc3)cc2)n1)C(=O)O [Cpd No. 28, (S)-2-((6-carbamoyl-2-(4-(4-fluorophenoxy)phenyl)pyrimidin-4-yl)amino)propanoic acid]",4.70 to 5.00
3,"O=C(O)c1cc(N2CCC[C@H]2C(=O)O)nc(-c2ccc(Oc3ccc(F)cc3)cc2)n1 [Cpd No. 29, (S)-6-(2-carboxypyrrolidin-1-yl)-2-(4-(4-fluorophenoxy)phenyl)pyrimidine-4-carboxylic acid]",< 4.70
4,"NC(=O)c1cc(N2CCC[C@H]2C(=O)O)nc(-c2ccc(Oc3ccc(F)cc3)cc2)n1 [Cpd No. 30, (S)-1-(6-carbamoyl-2-(4-(4-fluorophenoxy)phenyl)pyrimidin-4-yl)pyrrolidine-2-carboxylic acid]",< 4.70
5,"NC(=O)c1cc(N2c3ccccc3C[C@H]2C(=O)O)nc(-c2ccc(Oc3ccc(F)cc3)cc2)n1 [Cpd No. 31, (S)-1-(6-carbamoyl-2-(4-(4-fluorophenoxy)phenyl)pyrimidin-4-yl)indoline-2-carboxylic acid]",< 4.70
6,"C[C@H](Nc1cc(C(N)=O)nc(-c2ccc(Oc3ccc(C#N)cn3)cc2)n1)C(N)=O [Cpd No. 37, (S)-6-((1-amino-1-oxopropan-2-yl)amino)-2-(4-((5-cyanopyridin-2-yl)oxy)phenyl)pyrimidine-4-carboxamide]",4.70 to 5.00
7,"NC(=O)c1cc(NC[C@H](O)CO)nc(-c2ccc(Oc3ccc(F)cc3)cc2)n1 [Cpd No. 46, (S)-6-((2,3-dihydroxypropyl)amino)-2-(4-(4-fluorophenoxy)phenyl)pyrimidine-4-carboxamide]",< 4.70
